Data from patent US11485762B2, “Compositions and methods for inhibition of L-plastin activity in osteoclasts to reduce bone loss” (University of Maryland, Baltimore, priority 2017, dated 2022).
“Also recorded” adds a separate entry of the source.

B1: FL-LPL: HA-TAT fused full-length L-plastin protein (70-75 kDa), purified from bacterial expression vector pTAT-HA (protein, UniProt P13796 1-627, looked up)
chain: MARGSVSDEEMMELREAFAKVDTDGNGYISFNELNDLFKAACLPLPGYRVREITENLMATGDLDQDGRISFDEFIKIFHGLKSTDVAKTFRKAINKKEGICAIGGTSEQSSVGTQHSYSEEEKYAFVNWINKALENDPDCRHVIPMNPNTNDLFNAVGDGIVLCKMINLSVPDTIDERTINKKKLTPFTIQENLNLALNSASAIGCHVVNIGAEDLKEGKPYLVLGLLWQVIKIGLFADIELSRNEALIALLREGESLEDLMKLSPEELLLRWANYHLENAGCNKIGNFSTDIKDSKAYYHLLEQVAPKGDEEGVPAVVIDMSGLREKDDIQRAECMLQQAERLGCRQFVTATDVVRGNPKLNLAFIANLFNRYPALHKPENQDIDWGALEGETREERTFRNWMNSLGVNPRVNHLYSDLSDALVIFQLYEKIKVPVDWNRVNKPPYPKLGGNMKKLENCNYAVELGKNQAKFSLVGIGGQDLNEGNRTLTLALIWQLMRRYTLNILEEIGGGQKVNDDIIVNWVNETLREAKKSSSISSFKDPKISTSLPVLDLIDAIQPGSINYDLLKTENLNDDEKLNNAKYAISMARKIGARVYALPEDLVEVNPKMVMTVFACLMGKGMKRV
modifications: full-length HA-TAT tag
notes: HA-TAT fused full-length L-plastin protein (70-75 kDa), purified from bacterial expression vector pTAT-HA

Experiments:
osteoclasts = assay: Resorption pit formation assay on dentine slices; format: cell-based, mouse; conditions: for resorption of dentine matrix: sNT-LPL peptides, 12-16 hours
Procedure: Osteoclasts transduced with TAT-LPL peptides of interest for 30 minutes, were re-plated on dentine slices for 10-12 hours in the presence of TAT-fused peptides of interest and TNF-α. Some cultures were treated with a neutralizing antibody to TNFR-1. Resorption assay was performed as described previously (Chellaiah et al., 2000, J. Cell Biol., 148: 665-678; Chellaiah at al., 2000, J. Biol. Chem., 275: 11993-12002). Resorbed area were also scanned in confocal microscopy. Images were stored in TIF format and processed by Adobe Photoshop (Adobe Systems Inc.) (Chellaiah et al., 2000, J. Cell Biol, 148: 665-678). The resorbed pit areas were quantified and data were compiled from four slices per treatment and per experiment. The resorbed pit areas (20-25 pits/slice) were quantified and data were compiled from four slices per treatment. […] The area of the pit was determined from the free-hand traced perimeter using the LSM software (Chellaiah et al., 2000, J. Cell Biol., 148: 665-678). As per Cosmo Bio recommendations, the results of one experiment was compiled for the presentation.
Resorption was evaluated using dentine slices as described previously (Chellaiah et al., 2000, J. Biol. Chem., 275: 11993-12002). After transduction for 30 minutes, osteoclasts were re-plated on dentine slices for 12-16 hours to detect resorption lacuna in the presence of respective LPL peptide and TNF-α. Each treatment was done in quadruplicates Subsequently, dentine slices were stained with Mayer's acid hematoxylin (Sigma) for 6 minutes followed by washing several times with water. Excess stain in the resorbed area and stained cell debris were removed with a cotton swab. The pits were imaged under an X40 objective in a Zeiss inverted phase contrast microscope fitted with a CCD camera (Chellaiah et al., 2003, J Biol Chem 278: 29086-29097; Chellaiah et al., 2003, Mol Biol Cell, 14: 173-189). Images were stored in TIF format and processed by Adobe Photoshop (Adobe Systems Inc.).

[1] = system: osteoclasts derived from RAW cells; assay: Podosome organization and migration in osteoclasts derived from RAW cells; format: cell-based; conditions: compared with P5
Source text: C57/BL6 mice were used for osteoclast preparation as described previously (Chellaiah et al., 2000, J. Cell Biol., 148: 665.678; Chellaiah et al., 2007, J. Biol. Chem., 282: 10104-10116). Osteoclasts were generated in vitro using mouse bone marrow (BM) cells as described (Chellaiah et al., 2000, J. Cell Biol., 148: 665-678; Chellaiah et al., 2007, J. Biol. Chem., 282: 10104.10116). Osteoclasts differentiated from RAW 264.7 cells were also used to corroborate a few of the observations made with osteoclasts derived from mouse BM cells. Osteoclasts from RAW 264.7 cells were generated as described previously (Gupta et al., 2003, J Bone Miner Res 18: 669-685). Conditions were established that offer >90% population of mature multinucleated osteoclasts from both mouse bone marrow and RAW cells. […]
Cell migration (phagokinesis and transwell migration) assays were done as described previously (Chellaiah et al., 2000, J. Cell Biol., 148: 665-678). […] Migrated cells at the bottom of the wells were counted in 3-4 independent fields/transwell filter. […] In phagokinesis assay, cell motility was assessed by measuring the areas free of gold particles. By using a grided reticule (Boyce Scientific. Inc.) in the eyepiece of a Nikon microscope, areas free of gold particles were measured using a 10× objective. […]

endogenous LPL = assay: Phosphorylation of endogenous LPL in osteoclasts derived from RAW cells; format: cell-based; conditions: bone particles and TNF-α
Source text: C57/BL6 mice were used for osteoclast preparation as described previously (Chellaiah et al., 2000, J. Cell Biol., 148: 665.678; Chellaiah et al., 2007, J. Biol. Chem., 282: 10104-10116). Osteoclasts were generated in vitro using mouse bone marrow (BM) cells as described (Chellaiah et al., 2000, J. Cell Biol., 148: 665-678; Chellaiah et al., 2007, J. Biol. Chem., 282: 10104.10116). Osteoclasts differentiated from RAW 264.7 cells were also used to corroborate a few of the observations made with osteoclasts derived from mouse BM cells. Osteoclasts from RAW 264.7 cells were generated as described previously (Gupta et al., 2003, J Bone Miner Res 18: 669-685). Conditions were established that offer >90% population of mature multinucleated osteoclasts from both mouse bone marrow and RAW cells.
After flushing the marrow cells for osteoclast differentiation, long mouse bones (free of cells inside and muscles outside) were washed extensively with PBS and kept in ethanol until use. Long bones were air-dried in the hood and homogenized by a mini blender. Bone particles were sieved, and bone particles 60-80 μm in size were used for experiments. The multinucleated osteoclasts were seen from day four onward from mouse BM or RAW cells. At this stage, osteoclasts were added with sterile native bone particles (100 μg/ml medium) for 3-4 hours or 12-14 hours in the presence of TNF-α (20 ng/ml). […]

Molecule | resorption of dentine matrix (osteoclasts) | migration of osteoclasts [1] | pattern of podosome organization [1] | phosphorylation of endogenous (cellular) LPL (endogenous LPL) | resorption (resorption pits) (osteoclasts; dentine 10-12 hours, TNF-α)
MARGAVADEE [Peptide P2, TAT-fused sNT-LPL peptide, Ser-5 and Ser-7 substituted to Alanine (A5A7)] | no inhibitory effect |  |  |  | 
MARGSVSDEE [Peptide P1, TAT-fused small molecular weight (10aa) amino-terminal LPL peptide, unsubstituted (S5S7)] | Reduced resorption of dentine | no effect | no effect | significant decrease; also recorded: reduced | 
SRSGMVEEAD [Peptide P5, TAT-fused scrambled sNT-LPL peptide, control, reference compound] | no inhibitory effect |  |  |  | 
B1 |  |  |  |  | increase in the number and size (area) of resorption pits
